In patent US8858934B2, “Method for producing cells having characteristics of hepatocytes” (priority 2010, dated 2014):

Tested on: cells of the present invention (Metaheps)
Test: Long-term toxicity in the cells of the present invention (LDH release over 15 days)
Assay type: cell-based, human
Settings: Metaheps incubated 15 days with low concentrations (diclofenac 50 μM, acetaminophen 500 μM)
Method: On incubation days 1, 3, 6, 8, 10, 13 and 15 medium samples were drawn and LDH activity in media was determined using the Cytotoxicity Kit from Promega. LDH release was calculated in % as 100×(LDH in media/LDH media+LDH lysate).

SMILES | toxicity in Metaheps as measured by LDH release
CC(=O)Nc1ccc(O)cc1 [acetaminophen] | acute toxicity
O=C(O)Cc1ccccc1Nc1c(Cl)cccc1Cl [diclofenac] | long-term toxicity
